Laboratory results: PMC6915728 (Nature Communications, 2019)

Assays:
Assay type in all cases: cell-based, Escherichia coli
[1] = system: E. coli K12 BW25113 carrying the pooled ASKA overexpression plasmid library (~4400 ORFs); assay: Chemical-genetic profiling: pooled competitive growth of the ASKA gene-overexpression library with and without AMP, deep sequencing readout
Excerpt: We generated chemical-genetic interaction profiles for a diverse set of AMPs (Table 1) by screening them against a comprehensive library of gene overexpressions in E. coli[21]. Increasing gene dosage is a widely applied approach to reveal the targets of small-molecule antibiotics[22],[23]. It also informs on the ‘latent resistome’, that is, the collection of genes where a change from native expression level enhances resistance to a particular drug[24]. We applied a sensitive competition assay by monitoring growth of a pooled plasmid library, overexpressing all the E. coli ORFs (Fig. 1a), as we reported earlier. Specifically, E. coli cells carrying the pooled plasmid collection were grown in the presence or absence of one of the 15 AMPs tested, at a sub-inhibitory concentration that increased the doubling time of the whole population by 2-fold. Following 12 generations of growth, the plasmid pool was isolated from each selection and the relative abundance of each plasmid was determined by a deep sequencing readout (see Methods).
We carried out chemical-genetic profiling to determine the impact of the overexpression of each E. coli ORF on bacterial susceptibility to each of the 15 different AMPs. To this end, we used the complete set of E. coli K-12 Open Reading Frame Archive (ASKA) plasmid library (GFP minus) where each E. coli ORF is cloned into a high copy number expression plasmid (pCA24N-ORFGFP(-)). Prior to screening, the ASKA library was grown in the original host strain E. coli K-12 AG1 in 96-well plates (growth conditions: 37 °C, 280 rpm, LB medium). An equal aliquot of each member of the ASKA library (each well of the 96-well plates) was pooled together and the plasmid DNA (pCA24N-ORF-GFP(-)) was isolated and transformed into E. coli K12 BW25113 strain[51]. To obtain a negative control strain not having any overexpressed gene, the plasmid without a cloned ORF (pCA24N-noORF) was also transformed into the same E. coli strain. Then, on the pooled collection, we applied a previously reported competitive growth assay. Specifically, the pooled overexpression library and the control strain were grown in parallel in MS medium supplemented with 20 µg per ml chloramphenicol and the overexpression was induced by 100 µM isopropyl-ß-D-thiogalactopyranoside (IPTG). After 1 h induction, ~5 × 10^5 bacterial cells from the library were inoculated into each well of a 96-well microtiter plate containing a concentration gradient of an AMP in the MS medium supplemented with 20 µg per ml chloramphenicol and 100 µM IPTG. At the same time, both the library and the control strain with the empty plasmid were grown in the absence of any AMPs. We took special care to grow both of these samples in the exact same conditions as the samples in the presence of AMPs. Bacterial growth was monitored in a microplate reader (Biotek Synergy 2) for 24 h. At the end of the exponential growth phase, we selected those wells in which the doubling time of the cell population was increased by 2-fold. Then, from these wells, cells were split into four equal proportion and each was transferred into 20 mL of MS medium supplemented with the corresponding AMP in four different concentrations in the range that slowed down growth by two-fold in the microtitre plate. […] The rationale for this 2-step process was to maintain competition in exponential phase for 12 generations of growth, efficiently control the growth rate in a reproducible manner and obtain the plasmid pool with standard DNA isolation protocol (innuPREP plasmid mini Kit, Analytik Jena AG) in a yield that is enough for the downstream analysis. The cultures were vigorously shaken along the entire protocol to make sure that the cultures are completely homogeneous and therefore biasing interactions between clones (such as trans-resistance) was minimized. […]

[2] = system: E. coli BW25113 overexpression strains (ASKA plasmids); assay: Minimum inhibitory concentration (MIC), serial broth dilution, single-gene overexpression strains vs empty-vector control; settings: for Average relative change in MIC: mlaD overexpression strain relative to control (wild-type+empty vector), 3 replicates each, from optical density values of serial dilution plates, AMP in µg ml-1; for Relative MIC: broth dilution, MS medium, 100 µM IPTG, 30 °C, 20-24 h, OD600, 3 replicates
Summary of the method: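 E. coli overexpression strains grown in MS medium with chloramphenicol, induced with 100 µM IPTG for 1 h at 30 °C, then about half-million cells inoculated into 12-step AMP dilutions (typically 1.2-fold steps). OD600 read after 20–24 h at 30 °C with shaking; triplicate strains compared with empty-vector control.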

E. coli BW25113 ΔmlaD = assay: MIC, serial broth dilution, mlaD knockout strain vs wild type
Description: What could be the mechanism behind the antagonistic action of this pathway on membrane- versus intracellular-targeting AMPs? Since MlaD is part of a protein complex, it may lead to a loss-of-function effect upon overexpression[41],[42]. To test this, we asked whether overexpression and deletion of mlaD cause similar changes in susceptibility to a representative set of membrane- and intracellular-targeting AMPs.
Minimum inhibitory concentrations (MIC) were determined with a standard serial broth dilution technique with a minor modification. Specifically, instead of a two-fold dilution series, smaller AMP concentration steps were used (typically 1.2-fold) for two reasons. […] Second, gene overexpressions caused typically only small changes in the MICs of AMPs and therefore higher resolution was required. The protocol was as follows. From a stock solution of an AMP, 12-steps serial dilution was prepared in fresh MS medium in 96-well microtiter plates. Each AMP was represented in 11 different concentrations (3 wells per AMP concentration per strain). Three wells contained only medium to check the growth in the absence of AMP. After overnight growth in MS medium supplemented with chloramphenicol, bacterial strains were diluted 20-fold into fresh MS medium and grown until the cell density reached OD600 ~1. Cells were induced by 100 µM of IPTG and incubated for 1 h at 30 °C with continuous shaking at 300 rpm. Following incubation, approximately half-million cells were inoculated into the wells of the 96-well microtiter plate with a 96‐pin replicator. We used three independent replicates for each strain and the corresponding control. Two rows in the 96-well plate contained only MS medium in order to obtain the background OD value of the medium. Plates were incubated at 30 °C with continuous shaking at 300 rpm. After 20–24 h of incubation, OD600 values were measured in a microplate reader (Biotek Synergy 2).
A mlaD knockout strain of E. coli BW25113 carrying a kanamycin resistance cassette in the position of the gene was selected from the KEIO collection. The resistance marker was removed using plasmid-borne (pFT-A) expression of FLP recombinase leading to excision of the kanamycin resistance cassette. Cassette excision was verified by a polymerase chain reaction using the primers mlaD_del_ver_Fw (5′- […]) and mlaD_del_ver_Rev (5′- […]).
Supplementary Figure 13. […] The bacterial susceptibility of the mutant to AMPs was tested by MIC determination. Growth is shown relative to growth in the absence of the corresponding AMP. The blue line represents the mlaD knockout strain and the orange line represents the control strain (wild-type E. coli BW25113). Error bars indicate the standard errors based on three biological replicates. Source data are provided in the Source Data file.

[3] = overexpression strain hyfA, MIC of overexpression strain / MIC of empty-plasmid control
[4] = overexpression strain mlaC, MIC of overexpression strain / MIC of empty-plasmid control
[5] = overexpression strain mlaD, MIC of the overexpression strain / MIC of the control strain (wild-type carrying the empty plasmid)
[6] = overexpression strain murA, MIC of overexpression strain / MIC of empty-plasmid control
[7] = overexpression strain rpoH, MIC of overexpression strain / MIC of empty-plasmid control
[8] = overexpression strain uhpC, MIC of overexpression strain / MIC of empty-plasmid control
[9] = overexpression strain yhbJ, MIC of overexpression strain / MIC of empty-plasmid control
[10] = overexpression strain ytjB, MIC of overexpression strain / MIC of empty-plasmid control
[11] = mlaD deletion strain relative to control (E. coli BW25113), 3 replicates each, from optical density values of serial dilution plates, AMP in µg ml-1
[12] = gene ompT, whether the literature phenotype was captured by the overexpression screen
[13] = overexpression strain gadW, MIC of overexpression strain / MIC of empty-plasmid control
[14] = overexpression strain lptB, MIC of overexpression strain / MIC of empty-plasmid control
[15] = mlaD deletion strain vs control E. coli BW25113, average of 3 replicates

Sequence | Average relative change in MIC [2] | Relative MIC [2, 3] | Relative MIC [2, 4] | Relative MIC [2, 5] | Relative MIC [2, 6] | Relative MIC [2, 7] | Relative MIC [2, 8] | Relative MIC [2, 9] | Relative MIC [2, 10] | Average relative change in MIC (E. coli BW25113 ΔmlaD; [11]) | Overexpression phenotype, Chemical-genetic profile [1, 12] | Relative MIC [2, 13] | Relative MIC [2, 14] | Average relative change in MIC (E. coli BW25113 ΔmlaD; [15]) | further results
GLRKRLRKFRNKIKEKLKKIGQKIQGFVPKLAPRTDY [CAP18, antimicrobial peptide, source rabbit; disrupts cell membrane; cluster C3] | 1.86 | 0.72 | 2.1 | 2.42 | >2.25 | >2.25 | 1.66 | >2.25 | 1.72 | 2.25 |  |  |  |  | Overexpression phenotype, Chemical-genetic profile ([1]; gene waaY, whether the literature phenotype was captured by the overexpression screen): Confirmed; Relative MIC ([2]; overexpression strain narY, MIC of overexpression strain / MIC of empty-plasmid control): 0.76
LLGDFFRKSKEKIGKEFKRIVQRIKDFLRNLVPRTES [LL37, LL-37 human cathelicidin, human host-defense peptide; disrupts cell membrane; cluster C2] | 2.42 | 0.74 | 1.43 | 2.5 |  |  |  |  | 1.2 | 2.25 | Confirmed | 0.79 | 1.2 |  | Relative MIC ([2]; overexpression strain yijE, MIC of overexpression strain / MIC of empty-plasmid control): 1.2
RFRPPIRRPPIRPPFYPPFRPPIRPPIFPPIRPPFRPPLGPFP [BAC5, Bactenecin 5, antimicrobial peptide from bovine neutrophils; cluster C4] | 0.74 |  | 1 | 0.74 | 0.8 | 0.8 |  | 0.8 |  |  |  | 1.3 | 0.67 | 0.67 | Overexpression phenotype, Chemical-genetic profile ([1]; gene ptrB, whether the literature phenotype was captured by the overexpression screen (9 out of 13 captured)): Confirmed; Chemical-genetic score ([1]; overexpressed gene mlaD, read numbers in presence vs absence of AMP, sub-inhibitory dose doubling the doubling time, 12 generations, average of biological replicates): -2.101 log2 fold change; Relative MIC ([2]; overexpression strain mhpA, MIC of overexpression strain / MIC of empty-plasmid control): 0.79; Relative MIC ([2]; overexpression strain yiaJ, MIC of overexpression strain / MIC of empty-plasmid control): 0.7
TSSPPAAVVVRRRRRRRRRRRRRRRRRRR [PROA, Protamine, source herring, purchased from Sigma-Aldrich; cluster C3] | 0.70 |  |  | 0.72 |  |  | <0.61 | 0.69 | 0.8 |  | Confirmed | 0.78 | 0.51 | 0.43 | Overexpression phenotype, Chemical-genetic profile ([1]; gene nlpE, whether the literature phenotype was captured by the overexpression screen): Confirmed; Relative MIC ([2]; overexpression strain cvpA, MIC of overexpression strain / MIC of empty-plasmid control): 0.78; Relative MIC ([2]; overexpression strain mzrA, MIC of overexpression strain / MIC of empty-plasmid control): 0.36; Relative MIC ([2]; overexpression strain nikB, MIC of overexpression strain / MIC of empty-plasmid control): <0.71; Relative MIC ([2]; overexpression strain ompT, MIC of overexpression strain / MIC of empty-plasmid control): >2.5; Relative MIC ([2]; overexpression strain ptsN, MIC of overexpression strain / MIC of empty-plasmid control): 1.47
